Where two headings read alike, the source gives them in different places.
Tests used:
[1] = test system: plasma protein; assay: Plasma protein binding rate of herombopag in subjects with hepatic impairments; type: in vitro ADME, human
[2] = test system: platelet counts; assay: PD: platelet counts after administration compared to baseline; type: in vivo, human; conditions: all the groups; single 7.5 mg oral dose
Protocol: (§1) All the subjects in each group underwent PK, PD, and safety index collection following the administration of the study drug on D1 according to the trial process chart, and comparative analysis was then performed between groups.

[3] = Safety and adverse events after single 7.5 mg oral dose (CTCAE5.0 grading); type: in vivo, human
Protocol: as §1
(§2) Prior to the day-1 administration (D-1), the subjects were required to fast for 10 h or more, though water intake was not prohibited. The following morning (D1), the subjects orally took, on an empty stomach, a 7.5 mg dose of herombopag diethanolamine tablets (comprised of one 2.5 mg tablet and one 5 mg tablet) with about 240 mL of warm water. Water intake was prohibited 1 h before and after the administration. The subjects had lunch about 4 h after the administration and had dinner about 10 h after the administration. The subjects were advised to remain seated within the 2 h after the administration and to avoid strenuous exercise and prolonged bed rest.
In this study, a total of 24 subjects were included, and all of them were included in a safety analysis set.
In this study, all drug-related AEs were graded according to CTCAE5.0. […] The adverse reactions mainly occurred in the hepatic impairment groups, and the incidence of adverse reactions in the moderate hepatic impairment group was relatively high, which may be attributed to the fact that these subjects had pre-existing liver diseases of varying degrees of severity and most of them already had abnormal baseline laboratory test results. These subjects recovered from all the adverse events without intervention.

[4] = Single-dose, open-label pharmacokinetics of herombopag in subjects with normal liver function, mild and moderate hepatic impairments; type: in vivo, human; conditions: for AUC0-t GLSM Ratio / AUC0-∞ GLSM Ratio / Cmax GLSM Ratio: ANOVA
Protocol: Example 1: Study of Pharmacokinetics and Safety of Trial Drug in Subjects with Mild Hepatic Impairments (Child-Pugh: Grade A), Moderate Hepatic Impairments (Child-Pugh: Grade B), and Normal Liver Function
Trial drug: tablets of herombopag diethanolamine salt, produced and provided by Jiangsu Hengrui, strengths: 2.5 mg/tablet and 5 mg/tablet.
This study is a single-dose, open-label trial designed to evaluate the pharmacokinetics of herombopag in subjects with normal liver function, mild hepatic impairments, and moderate hepatic impairments.
The severity of the hepatic functional impairments in the subjects was assessed using the Child-Pugh score (mild: grade A, a score of 5 or 6; moderate: grade B, a score of 7-9).
as §1
PK blood sampling time points: Venous blood samples of about 4 mL were collected from each subject within the 1 h prior to administration and at 0.5, 1, 2, 4, 6, 7, 8, 10, 12, 24, 48, 72, 96, and 120 h after administration. Blood sampling time windows: within the 60 min prior to administration; ±2 min for the 0.5 h-2 h after administration; ±5 min for the 4 h-12 h; ±15 min for the 24 h-120 h after administration.
as §2
Pharmacokinetic parameters of herombopag, including Tmax, Cmax, AUC0-t, AUC0-∞, t1/2, V/F, and CL/F, were calculated according to the actual sampling time points using a non-compartmental model (NCA) on Phoenix WinNonlin 8.1.

[5] = moderate hepatic impairment group, 5 subjects
[6] = Moderate vs. Normal (moderate/normal)
[7] = mild hepatic impairments compared with normal liver function
[8] = moderate hepatic impairments compared with normal liver function
[9] = single 7.5 mg oral dose, fasted, mild hepatic impairment (n = 8), GeoMean (% CVb)
[10] = single 7.5 mg oral dose, fasted, moderate hepatic impairment (n = 8), GeoMean (% CVb)
[11] = single 7.5 mg oral dose, fasted, normal liver function group (n = 8), GeoMean (% CVb)

CC1=NN(c2ccc3c(c2)CCCC3)C(=O)/C1=N\Nc1cccc(-c2ccc(C(=O)O)o2)c1O [herombopag, (Z)-5-(2-hydroxy-3-(2-(3-methyl-5-oxo-1-(5,6,7,8-tetrahydronaphthalen-2-yl)-1H-pyrazol-4(5H)-ylidene)hydrazino)phenyl)furan-2-carboxylic acid]
effect of hepatic impairments on plasma protein binding rate [1]: did not significantly affect
platelet counts after administration compared to the baseline [2]: trend towards higher platelet counts compared to the baseline
incidence of AEs related to the study drug ([3]; all 24 subjects, 13 subjects, 25 events): 54.2%
incidence of adverse events ([3]; all 24 subjects, 15 subjects, 29 events): 62.5%
subjects with grade 1 drug-related AEs (CTCAE5.0) ([3]; all subjects, nine subjects): 37.5%
subjects with grade 2 drug-related AEs (CTCAE5.0) ([3]; all subjects, seven subjects): 29.2%
subjects with grade 2 drug-related AEs (CTCAE5.0) ([3]; mild hepatic impairment group, 1 subject, decreased neutrophil count): 12.5%
subjects with grade 1 drug-related AEs (CTCAE5.0) ([3]; mild hepatic impairment group, 3 subjects): 37.5%
incidence of AEs related to the study drug ([3]; mild hepatic impairment group, 4 subjects, 5 events): 50.0%
subjects with grade 3 drug-related AEs (CTCAE5.0) ([3]; moderate hepatic impairment group, 1 subject): 12.5%
subjects with grade 1 drug-related AEs (CTCAE5.0) [3, 5]: 62.5%
subjects with grade 2 drug-related AEs (CTCAE5.0) [3, 5]: 62.5%
incidence of AEs related to the study drug ([3]; moderate hepatic impairment group, 7 subjects, 18 events): 87.5%
subjects with grade 1 drug-related AEs (CTCAE5.0) ([3]; normal liver function group, 1 subject): 25.0%
subjects with grade 2 drug-related AEs (CTCAE5.0) ([3]; normal liver function group, 1 subject, hypertriglyceridemia): 12.5%
incidence of AEs related to the study drug ([3]; normal liver function group, 2 subjects, 2 events): 25.0%
safety and tolerability ([3]; single oral dose, normal liver function, mild and moderate hepatic impairments): safe and well tolerated
AUC0-t GLSM Ratio ([4]; Mild vs. Normal (mild/normal)): 121.73%
AUC0-∞ GLSM Ratio ([4]; Mild vs. Normal (mild/normal)): 120.16%
Cmax GLSM Ratio ([4]; Mild vs. Normal (mild/normal)): 170.39%
AUC0-t GLSM Ratio [4, 6]: 171.21%
AUC0-∞ GLSM Ratio [4, 6]: 173.06%
Cmax GLSM Ratio [4, 6]: 204.72%
median time to peak, hepatic impairment groups versus normal liver function group ([4]; human, in vivo): smaller median time to peak
AUC(0-t) ([4]; human, plasma, oral, 7.5 mg, geometric least squares mean, mild hepatic impairment group, n 8, read-out: AUC0-t GLSM): 1060 ng·h/mL
AUC(0-inf) ([4]; human, plasma, oral, 7.5 mg, geometric least squares mean, mild hepatic impairment group, n 8, read-out: AUC0-∞ GLSM): 1120 ng·h/mL
Cmax ([4]; human, plasma, oral, 7.5 mg, geometric least squares mean, mild hepatic impairment group, n 8, read-out: Cmax GLSM): 62.6 ng/mL
AUC(0-t) ([4]; human, plasma, oral, 7.5 mg, geometric least squares mean, moderate hepatic impairment group, n 8, read-out: AUC0-t GLSM): 1500 ng·h/mL
AUC(0-inf) ([4]; human, plasma, oral, 7.5 mg, geometric least squares mean, moderate hepatic impairment group, n 8, read-out: AUC0-∞ GLSM): 1610 ng·h/mL
Cmax ([4]; human, plasma, oral, 7.5 mg, geometric least squares mean, moderate hepatic impairment group, n 8, read-out: Cmax GLSM): 75.3 ng/mL
AUC(0-t) ([4]; human, plasma, oral, 7.5 mg, geometric least squares mean, normal liver function group, n 8, read-out: AUC0-t GLSM): 874 ng·h/mL
AUC(0-inf) ([4]; human, plasma, oral, 7.5 mg, geometric least squares mean, normal liver function group, n 8, read-out: AUC0-∞ GLSM): 929 ng·h/mL
Cmax ([4]; human, plasma, oral, 7.5 mg, geometric least squares mean, normal liver function group, n 8, read-out: Cmax GLSM): 36.8 ng/mL
half-life ([4]; human, plasma, po, 7.5 mg, single 7.5 mg oral dose, empty stomach, mild hepatic impairments (Child-Pugh: grade A), read-out: arithmetic mean of t1/2 (converted)): 32.3 h
AUC(0-t) ([4]; human, plasma, po, 7.5 mg, single 7.5 mg oral dose, empty stomach, mild hepatic impairments (Child-Pugh: grade A), read-out: geometric mean of AUC0-t): 1060 ng·h/mL
AUC(0-inf) ([4]; human, plasma, po, 7.5 mg, single 7.5 mg oral dose, empty stomach, mild hepatic impairments (Child-Pugh: grade A), read-out: geometric mean of AUC0-∞): 1120 ng·h/mL
Tmax ([4]; human, plasma, po, 7.5 mg, single 7.5 mg oral dose, empty stomach, mild hepatic impairments (Child-Pugh: grade A), read-out: median of Tmax): 2 h
half-life ([4]; human, plasma, po, 7.5 mg, single 7.5 mg oral dose, empty stomach, moderate hepatic impairments (Child-Pugh: grade B), read-out: arithmetic mean of t1/2 (converted)): 36.3 h
AUC(0-t) ([4]; human, plasma, po, 7.5 mg, single 7.5 mg oral dose, empty stomach, moderate hepatic impairments (Child-Pugh: grade B), read-out: geometric mean of AUC0-t): 1580 ng·h/mL
AUC(0-inf) ([4]; human, plasma, po, 7.5 mg, single 7.5 mg oral dose, empty stomach, moderate hepatic impairments (Child-Pugh: grade B), read-out: geometric mean of AUC0-∞): 1660 ng·h/mL
Tmax ([4]; human, plasma, po, 7.5 mg, single 7.5 mg oral dose, empty stomach, moderate hepatic impairments (Child-Pugh: grade B), read-out: median of Tmax): 2 h
half-life ([4]; human, plasma, po, 7.5 mg, single 7.5 mg oral dose, empty stomach, normal liver function, read-out: arithmetic mean of t1/2 (converted)): 34.6 h
AUC(0-t) ([4]; human, plasma, po, 7.5 mg, single 7.5 mg oral dose, empty stomach, normal liver function, read-out: geometric mean of AUC0-t): 874 ng·h/mL
AUC(0-inf) ([4]; human, plasma, po, 7.5 mg, single 7.5 mg oral dose, empty stomach, normal liver function, read-out: geometric mean of AUC0-∞): 929 ng·h/mL
Tmax ([4]; human, plasma, po, 7.5 mg, single 7.5 mg oral dose, empty stomach, normal liver function, read-out: median of Tmax): 8 h
AUC(0-t) ([4]; human, plasma, po, 7.5 mg, single 7.5 mg oral dose, fasted, mild hepatic impairment (n = 8), GeoMean (% CVb), read-out: AUC0-t): 1060 ng·h/mL
AUC(0-inf) ([4]; human, plasma, po, 7.5 mg, single 7.5 mg oral dose, fasted, mild hepatic impairment (n = 8), GeoMean (% CVb), read-out: AUC0-∞): 1120 ng·h/mL
Cmax ([4]; human, plasma, po, 7.5 mg, single 7.5 mg oral dose, fasted, mild hepatic impairment (n = 8), GeoMean (% CVb), read-out: Cmax): 62.4 ng/mL
half-life ([4]; human, plasma, po, 7.5 mg, single 7.5 mg oral dose, fasted, mild hepatic impairment (n = 8), Mean ± SD, read-out: t1/2 (converted)): 32.2 ± 7.28 h
Tmax ([4]; human, plasma, po, 7.5 mg, single 7.5 mg oral dose, fasted, mild hepatic impairment (n = 8), Median (Min-Max), read-out: Tmax): 2 h
AUC(0-t) ([4]; human, plasma, po, 7.5 mg, single 7.5 mg oral dose, fasted, moderate hepatic impairment (n = 8), GeoMean (% CVb), read-out: AUC0-t): 1580 ng·h/mL
AUC(0-inf) ([4]; human, plasma, po, 7.5 mg, single 7.5 mg oral dose, fasted, moderate hepatic impairment (n = 8), GeoMean (% CVb), read-out: AUC0-∞): 1660 ng·h/mL
Cmax ([4]; human, plasma, po, 7.5 mg, single 7.5 mg oral dose, fasted, moderate hepatic impairment (n = 8), GeoMean (% CVb), read-out: Cmax): 82.8 ng/mL
half-life ([4]; human, plasma, po, 7.5 mg, single 7.5 mg oral dose, fasted, moderate hepatic impairment (n = 8), Mean ± SD, read-out: t1/2 (converted)): 36.3 ± 11.9 h
Tmax ([4]; human, plasma, po, 7.5 mg, single 7.5 mg oral dose, fasted, moderate hepatic impairment (n = 8), Median (Min-Max), read-out: Tmax): 2 h
AUC(0-t) ([4]; human, plasma, po, 7.5 mg, single 7.5 mg oral dose, fasted, normal liver function group (n = 8), GeoMean (% CVb), read-out: AUC0-t): 874 ng·h/mL
AUC(0-inf) ([4]; human, plasma, po, 7.5 mg, single 7.5 mg oral dose, fasted, normal liver function group (n = 8), GeoMean (% CVb), read-out: AUC0-∞): 929 ng·h/mL
Cmax ([4]; human, plasma, po, 7.5 mg, single 7.5 mg oral dose, fasted, normal liver function group (n = 8), GeoMean (% CVb), read-out: Cmax): 36.8 ng/mL
half-life ([4]; human, plasma, po, 7.5 mg, single 7.5 mg oral dose, fasted, normal liver function group (n = 8), Mean ± SD, read-out: t1/2 (converted)): 34.6 ± 11.9 h
Tmax ([4]; human, plasma, po, 7.5 mg, single 7.5 mg oral dose, fasted, normal liver function group (n = 8), Median (Min-Max), read-out: Tmax): 8 h
AUC0-t increase [4, 7]: 21.73%
AUC0-∞ increase [4, 7]: 20.16%
Cmax increase [4, 7]: 70.39%
AUC0-t increase [4, 8]: 71.21%
AUC0-∞ increase [4, 8]: 73.06%
Cmax increase [4, 8]: 104.72%
half-lives compared between groups ([4]; normal, mild and moderate hepatic impairment groups): substantially identical half-lives
CL/F [4, 9]: 6.72(41.5) L/h
Cmax [4, 9]: 62.6(42.2) ng/mL
V/F [4, 9]: 304(45.6) L
CL/F [4, 10]: 4.66(58.8) L/h
V/F [4, 10]: 233(69.7) L
CL/F [4, 11]: 8.07(101.6) L/h
V/F [4, 11]: 372(60.3) L

From patent US20250144077A1, “DOSAGE REGIMEN FOR THROMBOPOIETIN RECEPTOR AGONIST” (JIANGSU HENGRUI PHARMACEUTICALS CO., LTD., priority 2022, published 2025)
